The IC50 is the point on the concentration scale where inhibition reaches its midpoint.

For data set [1], the system named is Melanoma (A 375, B16-F1) and Prostate Cancer Cells (DU145, PC-3, LNCaP, PPC-1). The data set is described as follows: Antiproliferative activity over melanoma and prostate cancer cell lines. It counts as cell-based, human and mouse.
A further data set can be described thus: Water solubility. In kind it is physicochemical.
For another data set, the system named is DU 145 cells. Put plainly: SRB cytotoxicity assay, DU 145 prostate cancer. It counts as cell-based, human. Particulars: read-out: IC50 ± SEM (μM) DU 145, Table 2, 96 h. (In SRB staining, fixed cells bind dye roughly in proportion to their protein.)
The subject of another data set is CCRF-CEM (Leukemia). The data set is described as follows: NCI-60 human tumor cell line screen, CCRF-CEM. It counts as cell-based. Particulars: read-out: IC50 NCI-60, CCRF-CEM, lowest of the NCI-60 range.
In the next data set the test system is B16-F1 cells. The data set is described as follows: SRB cytotoxicity assay, B16-F1 melanoma. In kind it is cell-based, mouse. Particulars: read-out: IC50 ± SEM (μM) B16-F1, Table 2, 48 h.
Another data set concerns A375 cells. Put plainly: SRB cytotoxicity assay, A375 melanoma. In kind it is cell-based, human. Particulars: read-out: IC50 ± SEM (μM) A375, Table 2, 48 h.
In another data set the test system is PPC-1 cells. Put plainly: SRB cytotoxicity assay, PPC-1 prostate cancer. It counts as cell-based, human. Particulars: read-out: IC50 ± SEM (μM) PPC-1, Table 2, 96 h.
A further data set relates to LNCaP cells. Put plainly: SRB cytotoxicity assay, LNCaP prostate cancer. It counts as cell-based, human. The following applies: read-out: IC50 ± SEM (μM) LNCaP, Table 2, 96 h.
The nature of the next data set: Cell cycle progression. Particulars: unpublished data. It counts as cell-based.

Consider `COc1cc(NC(=O)C2CSC(c3ccccc3)=N2)cc(OC)c1OC` (stereo in doubt) [4b, (4R)-2-Phenyl-N-(3,4,5-trimethoxyphenyl)-4,5-dihydrothiazole-4-carboxamide], for which, in data set [1] (read-out: IC50 over melanoma and prostate cancer cell lines), the IC50 was in the range of 3400 to 38300 nM.

For `O=C(c1ccccn1)c1csc(-c2ccccc2)n1` [8i, (2-Phenylthiazol-4-yl)-(pyridin-2-yl)-methanone], in data set [1], the “antiproliferative activity (in words)” value was “total loss of the anti-cancer activity”.

`COc1cc(NC(=O)c2csc(-c3ccccc3)n2)cc(OC)c1OC` [compound 5, 2-Phenyl-N-(3,4,5-trimethoxyphenyl)thiazole-4-carboxamide]: in data set [1], the “antiproliferative activity (in words)” value is reported as “did not show any cytotoxicity against either cancer cell line tested”.

On to `COc1cc(C(=O)c2csc(-c3ccc(C(=O)O)cc3)n2)cc(OC)c1OC` [8r, 4-[4-(3,4,5-Trimethoxybenzoyl)-thiazol-2-yl]-benzoic acid], for which the “antiproliferative activity (in words)” value in [1] is listed as “total loss of the anti-cancer activity”.

For `COc1cc(NC(=O)[C@@H]2CSC(c3cc(OC)c(OC)c(OC)c3)N2)cc(OC)c1OC` (mixture of isomers) [2b, (2RS, 4R)-N,2-bis(3,4,5-trimethoxyphenyl)thiazolidine-4-carboxamide], the “antiproliferative activity (in words)” value in data set [1] was “the potency against both cancer cell lines was lost”.

As to `O=C(c1cc(O)c(O)c(O)c1)c1csc(-c2ccccc2)n1` [compound 11, (2-Phenyl-thiazol-4-yl)-(3,4,5-trihydroxy-phenyl)-methanone], the “water solubility (in words)” value in the data set “Water solubility” is given as “water soluble”. Also, the “antiproliferative activity (in words)” value in data set [1] is on record as “complete loss of antiproliferative activity”.

On to `COc1ccccc1C(=O)c1csc(-c2ccccc2)n1` [8d, (2-Methoxyphenyl)(2-phenylthiazol-4-yl)-methanone], for which the “antiproliferative activity (in words)” value in [1] is “weak activity against a certain cell lines”.

Consider `COc1cc(C(=O)c2csc(-c3ncccn3)n2)cc(OC)c1OC` [8y, [2-(Pyrimidin-2-yl)-thiazol-4-yl]-(3,4,5-trimethoxyphenyl)-methanone], for which the “antiproliferative activity (in words)” value in [1] is given as “kept partial activity against both cancer cells”.

With “(2RS, 4R)-2-phenyl-thiazolidine-4-carboxylic acid hexadecylamide [ATCAA-1]”, the IC50 was 1.7 ± 0.1 µM in the data set on DU 145 cells; 124 nM with CCRF-CEM (Leukemia); 2.2 ± 0.3 µM in the data set on B16-F1 cells; 2.1 ± 0.2 µM in the data set with A375 cells; 0.4 ± 0.1 µM in the data set with PPC-1 cells; 1 ± 0.1 µM in the data set on LNCaP cells.

Consider `COc1cc(NC(=O)[C@@H]2CSC(c3ccccc3)N2)cc(OC)c1OC` (mixture of isomers) [2a, (2RS, 4R)-2-Phenyl-N-(3,4,5-trimethoxyphenyl)thiazolidine-4-carboxamide], for which the “antiproliferative activity (in words)” value in data set [1] is “the potency against both cancer cell lines was lost”.

In the case of `COc1ccc(-c2nc(C(=O)c3cc(OC)c(OC)c(OC)c3)cs2)cc1OC` [8o, [2-(3,4-Dimethoxyphenyl)-thiazol-4-yl]-(3,4,5-trimethoxyphenyl)-methanone], the “antiproliferative activity (in words)” value in data set [1] is recorded as “comparable antiproliferative activity”.

On to `COc1cc(C(=O)c2csc(-c3ccccc3)n2)cc(OC)c1OC` [8f, (2-Phenyl-thiazol-4-yl)-(3,4,5-trimethoxy-phenyl)-methanone], for which the “cell cycle effect (in words)” value in “Cell cycle progression” is “significant increase in G2/M phase arrest”.

In the case of `COC(=O)c1ccc(-c2nc(C(=O)c3cc(OC)c(OC)c(OC)c3)cs2)cc1` [8s, Methyl-4-[4-(3,4,5-trimethoxybenzoyl)-thiazol-2-yl]-benzoate], the “antiproliferative activity (in words)” value in data set [1] was “total loss of potency”.

With `COc1cc(C(=O)c2csc(-c3ccc(C#N)cc3)n2)cc(OC)c1OC` [8q, 4-[4-(3,4,5-Trimethoxybenzoyl)-thiazol-2-yl]-benzonitrile], the “antiproliferative activity (in words)” value in data set [1] is reported as “comparable antiproliferative activity”.

For the compound `COc1cc(C(=O)c2csc(-c3ccc(C(F)(F)F)cc3)n2)cc(OC)c1OC` [8t, (2-(4-(Trifluoromethyl)-phenyl)-thiazol-4-yl)(3,4,5-trimethoxyphenyl)-methanone], the “antiproliferative activity (in words)” value in data set [1] is recorded as “comparable antiproliferative activity”.

For the compound `COc1cc(C(=O)c2cscn2)cc(OC)c1OC` [compound 10, Thiazol-4-yl-(3,4,5-trimethoxy-phenyl)-methanone], in data set [1], the “antiproliferative activity (in words)” value is “total loss of activity”.

Regarding `COc1cc(C(=O)c2csc(-c3ccc([N+](=O)[O-])cc3)n2)cc(OC)c1OC` [8p, [2-(4-Nitrophenyl)-thiazol-4-yl]-(3,4,5-trimethoxyphenyl)-methanone], in data set [1], the “antiproliferative activity (in words)” value is “comparable antiproliferative activity”.

Take `COc1cc(OC)cc(C(=O)c2csc(-c3ccccc3)n2)c1` [8g, (3,5-Dimethoxyphenyl)(2-phenylthiazol-4-yl)-methanone]: in data set [1] (against six different cell lines, relative to 8f), the “fold lower average cytotoxicity than 8f” value is given as 6 fold.
